This is an account of results in ChEMBL document CHEMBL5625279, “Synthesis and antiproliferative activity of a tetrahydrofuran analog of FR901464” (2024).

One may read the GI50 as the concentration at which growth is held to half of that of the control.

Common to all, as to assay type: functional
The test system of one experiment is A549. As to the kind of experiment: Antiproliferative activity against human A549 cells assessed as growth inhibition incubated for 3 days. The settings on record: A549, 72 h, time 3 day.
The subject of another experiment is HCT-116. As to the kind of experiment: Antiproliferative activity against human HCT-116 cells assessed as growth inhibition incubated for 3 days. The settings on record: HCT-116, 72 h, time 3 day.
For a further experiment, the system named is LS174T. Kind of experiment: Antiproliferative activity against human LS174T cells assessed as growth inhibition incubated for 3 days. As to conditions: 72 h, time 3 day.

With `COCO[C@@H](C)/C=C\C(=O)N[C@@H]1C[C@H](C)[C@H](C/C=C(C)/C=C/[C@@H](O)[C@H]2OC(C)(C)C[C@@]23CO3)O[C@@H]1C`, the GI50 in the experiment on A549 turned out to be 8700 nM; in the experiment with HCT-116 it was 3400 nM; with LS174T it was 5500 nM.
`COc1cccc2c1C(=O)c1c(O)c3c(c(O)c1C2=O)C[C@@](O)(C(=O)CO)C[C@@H]3O[C@H]1C[C@H](N)[C@H](O)[C@H](C)O1` [DOXORUBICIN]: the GI50 came to 608 nM with A549, 77 nM in the experiment with HCT-116 and 248 nM with LS174T.
The like results for `CC(=O)O[C@@H](C)/C=C\C(=O)N[C@@H]1C[C@H](C)[C@H](C/C=C(C)/C=C/[C@H]2OC(C)(C)C[C@@]3(CO3)[C@@H]2O)O[C@@H]1C` were, in that order, 7.4 nM, 1.1 nM and 5.7 nM.
Turning to `COCO[C@@H](C)/C=C\C(=O)N[C@@H]1C[C@H](C)[C@H](C/C=C(C)/C=C/[C@H]2OC(C)(C)C[C@@]3(CO3)[C@@H]2O)O[C@@H]1C`, the GI50 worked out at 3.9 nM in the experiment with A549, 3.1 nM in the experiment with HCT-116 and 8.4 nM in the experiment with LS174T.
